Data: ChEMBL document CHEMBL1201862, “PubChem BioAssay data set” (2004)
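Five concentrations, 48 hours, 96-well plates. GI50 marks 50% less growth.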 Calls of active or inactive are those of the source. No stated cut-off is given here; in the data, active = GI50 up to about 1.1 µM and inactive = higher.

What was measured:
Assay in all cases: growth of human tumour cells (NCI), 48 h
A498 = system: A498
CAKI-1 = system: CAKI-1
HCC 2998 = system: HCC 2998
HOP-92 = system: HOP-92
HT-29 = system: HT-29
Hs-578T = system: Hs-578T
LOX IMVI = system: LOX IMVI
MCF7 = system: MCF7
NCI-H23 = system: NCI-H23
OVCAR-8 = system: OVCAR-8
PC-3 = system: PC-3
RPMI-8226 = system: RPMI-8226
SF-295 = system: SF-295
SN12C = system: SN12C
SNB-19 = system: SNB-19
UACC-62 = system: UACC-62

Measured: GI50

O=C(Nc1nc(C23CC4CC(CC(C4)C2)C3)cs1)c1cc2c(ccc3ccccc32)oc1=O
inactive: A498 > 100 µM | CAKI-1 > 100 µM | HCC 2998 > 100 µM | HOP-92 > 100 µM | HT-29 > 100 µM | Hs-578T > 100 µM | LOX IMVI > 100 µM | MCF7 > 100 µM | NCI-H23 > 100 µM | OVCAR-8 > 100 µM | PC-3 > 100 µM | RPMI-8226 > 100 µM | SF-295 > 100 µM | SN12C > 100 µM | SNB-19 > 100 µM

COC(=O)CC(SCCO)SCCO
inactive: A498 > 100 µM | CAKI-1 > 100 µM | HCC 2998 > 100 µM | HOP-92 > 100 µM | HT-29 > 100 µM | Hs-578T > 100 µM | LOX IMVI > 100 µM | NCI-H23 > 100 µM | OVCAR-8 > 100 µM | PC-3 > 100 µM | RPMI-8226 > 100 µM | SF-295 > 100 µM | SN12C > 100 µM | SNB-19 > 100 µM | UACC-62 > 100 µM

CC[N+]1(C)CCC(O)(c2ccc(C)cc2)C(C(=O)c2ccc(C)cc2)C1 (stereo not drawn)
inactive: A498 > 100 µM | CAKI-1 23.9 µM | HCC 2998 > 100 µM | HOP-92 23 µM | HT-29 42.7 µM | Hs-578T > 100 µM | MCF7 16.4 µM | NCI-H23 > 100 µM | OVCAR-8 34.2 µM | PC-3 > 100 µM | RPMI-8226 10.9 µM | SF-295 37.4 µM | SN12C > 100 µM | SNB-19 > 100 µM | UACC-62 > 100 µM

C=C(Cl)C(C)(Cl)CCC(Cl)C(C)(C)Cl (stereo not drawn)
inactive: A498 > 100 µM | CAKI-1 > 100 µM | HCC 2998 > 100 µM | HOP-92 25.9 µM | HT-29 43.7 µM | Hs-578T 27 µM | LOX IMVI 18.2 µM | MCF7 37.8 µM | NCI-H23 83.2 µM | PC-3 54.7 µM | RPMI-8226 20.5 µM | SF-295 > 100 µM | SN12C 51.6 µM | SNB-19 > 100 µM

CC(OC(C)(C)C)[C@H](NC(=O)OCc1ccccc1)C(=O)NC(OCc1ccccc1)[C@H]1COC(C)(C)O1 (stereo partly drawn)
inactive: A498 > 10 µM | CAKI-1 > 10 µM | HCC 2998 > 10 µM | HOP-92 > 10 µM | HT-29 > 10 µM | Hs-578T > 10 µM | LOX IMVI > 10 µM | NCI-H23 > 10 µM | OVCAR-8 > 10 µM | PC-3 > 10 µM | SF-295 > 10 µM | SN12C > 10 µM | SNB-19 > 10 µM | UACC-62 > 10 µM
